According to patent publication US20130252837A1, “METHOD FOR MEASURING RESISTANCE OR SENSITIVITY TO DOCETAXEL” (Sanofi US, priority 2004, published 2013):

System: caspase-3
Test: active caspase-3 levels, beadmates kit / Luminex
Type: cell-based, human
Details: 40 nM docetaxel, 48 hours, control siRNA cells
From the text: Docetaxel can cause cell death through induction of apoptosis (Kim et al., Int J Mol Med 11:799, 2003). To determine whether Pim-1 and BubR1 siRNAs could modulate a canonical apoptotic pathway in the absence and presence docetaxel, we studied activated caspase-3 levels in HCT116 cells (using a bioplex assay) (FIG. 14).
In an attempt to define the molecular basis for enhanced cell death associated with a Pim-1 knockdown, we examined the activation state of a key cellular pathway involved in cell survival, AKT. HCT116 were seeded at 4×10^5 cells/well on 6-well plates and the next day transfected with siRNAs at 16 nM using Lipofectamine 2000 (Invitrogen). After 24 hours, cells were untreated or treated with 5 and 40 nM docetaxel. Cells were lysed 24, 48 and 72 hours after docetaxel addition with ice-cold lysis buffer (50 mM HEPES buffer (PH7.4), 1% NP40, 2.5 mM EDTA, 100 mM sodium fluoride, 10 mM sodium PPI, protease inhibitor cocktail tablet (Roche), 2 mM sodium orthovanadate) and centrifuged at 12,000 g for 10 minutes. Lysates were then quantified for total protein levels using DC protein assay (BioRad).

SMILES: CC(=O)O[C@@]12CO[C@@H]1C[C@H](O)[C@@]1(C)C(=O)[C@H](O)C3=C(C)[C@@H](OC(=O)[C@H](O)[C@@H](NC(=O)OC(C)(C)C)c4ccccc4)C[C@@](O)([C@@H](OC(=O)c4ccccc4)[C@H]21)C3(C)C [docetaxel]
- caspase-3 activity in control cells: induced
